Assay results from patent publication US20220000805A1, “COMBINATION OF M-OPIOID RECEPTOR (MOR) MODULATORS FOR PREVENTING AND TREATING PAIN, S[…] MENTAL DISORDERS” (HADAS IT MEDICAL RESEARCH SERVICES & DEVELOPMENT LIMITED, priority 2018, published 2022).
Values joined by “and” are separate entries in the source; they are usually repeats but may differ in a detail not shown here. Equal entries are not always repeated. Where two headings read alike, the source gives them in different places.

Experiments:
[1] = target: T1, h-OPRM1 (human MOR) (Homo sapiens, UniProt P35372); format: cell-based
T1 construct: host or cells: Chinese hamster ovary (CHO) cells, cAMP Hunter cell line
Procedure: Tracking cAMP Secondary Messenger Pathway in MOR Expressing Cells (DiscoverX)
A Chinese hamster ovary cell line stably expressing non-tagged h-OPRM1 (human MOR) that signal through cAMP was used.
1. cAMP Hunter cell line expressing h-OPRM1 was expanded from freezer stocks according to standard procedures. 2. Cells were seeded in a total volume of 20 μL into white walled, 384-well microplates and incubated at 37° C. for the appropriate time prior to testing. 3. cAMP modulation was determined using the DiscoverX HitHunter cAMP XS+ assay (for further details, see below).
1. For agonist determination, cells were incubated with sample in the presence of EC80 forskolin to induce cAMP-generation and Gi agonist activity, inhibiting cAMP formation, by the test compound was assayed, as follows: 2. Media was aspirated from cells and replaced with 15 μL 2:1 HBSS/10 mM Hepes: cAMP XS+Ab reagent. 3. Intermediate dilution of sample stocks was performed to generate 4× sample in assay buffer containing 4× EC80 forskolin. An amount of 4.5 μL of 4× sample was added to cells and incubated at 37° C. or room temperature for 30 or 60 minutes. The vehicle used for all stock solutions is DMSO and its final concentration in the assay system was 1%.
1. After appropriate compound incubation, assay signal was generated through incubation with 20 μL cAMP XS+ED/CL lysis cocktail for one hour followed by incubation with 20 μL cAMP XS+EA reagent for three hours at room temperature. 2. Microplates were read following signal generation with a PerkinElmer Envision™ instrument for chemiluminescent signal detection.
1. Compound activity was analyzed using CBIS data analysis suite (ChemInnovation, CA). 2. For Gi agonist mode assays, percentage activity is calculated using the following formula: % Activity=100%×(1−(mean RLU of test sample−mean RLU of MAX control)/(mean RLU of vehicle control−mean RLU of MAX control)).
OPRM1, the μ-opioid receptor (MOR), is a GPCR with high affinity for enkephalins and beta-endorphin, but a low affinity for dynorphins. The prototypical OPRM1 agonist is morphine, the primary psychoactive alkaloid in opium. It is an inhibitory G-protein coupled receptor that activates the Gi alpha subunit, inhibiting adenylate cyclase activity, thereby lowering cAMP levels. In order to test synergy of various drug combinations, towards the human receptor (h-OPRM1), a high sensitivity and absolute selectivity assay system, developed by DiscoverX (Fremont, Calif., USA) was employed. The analytical power of this assay, described in detail below, enables unequivocal identification of agonistic or antagonistic activity of drugs towards h-OPRM1, at the biologically relevant cellular context. […] A positive control dose-response was also examined in parallel (see FIG. 6).

[2] = tested on: opioid-receptor; settings: opioid agonist; relative to 7-hydroxymitragynine; cited from earlier work
[3] = single iv bolus dose of 0.5 mg/kg racemic ketamine; for at least 24 hrs; cited from earlier work

T1 sequence (P35372 whole entry): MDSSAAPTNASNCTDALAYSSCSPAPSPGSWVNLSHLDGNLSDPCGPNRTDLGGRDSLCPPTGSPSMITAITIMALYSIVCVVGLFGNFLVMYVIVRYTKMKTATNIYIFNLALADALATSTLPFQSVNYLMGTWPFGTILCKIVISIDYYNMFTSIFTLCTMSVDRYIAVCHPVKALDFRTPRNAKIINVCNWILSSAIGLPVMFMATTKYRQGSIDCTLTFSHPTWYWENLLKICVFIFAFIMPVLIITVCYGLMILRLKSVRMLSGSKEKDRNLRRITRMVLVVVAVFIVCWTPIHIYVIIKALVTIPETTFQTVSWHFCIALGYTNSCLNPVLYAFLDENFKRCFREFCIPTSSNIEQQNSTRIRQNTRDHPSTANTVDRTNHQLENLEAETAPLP

In the case of `N[C@@]1(c2ccccc2Cl)CCC[C@@H](O)C1=O.O=C(O)C(F)(F)F` (racemic) [HNK, rac-(2r,6r)-2 amino-2-(2-chlorophenyl)-6-hydroxycyclohexan-1-one; trifluoroacetic acid, trans], the “agonistic activity of the ketamine active metabolite by itself” value [1] is reported as “no agonistic activity”, the “Agonistic activity (% of maximal c-AMP inhibition)” value ([1]; HNK 0.08 nM by itself, Table 2/5 series) is reported as 0% and 3.1% and the “Agonistic activity (% of maximal c-AMP inhibition)” value ([1]; HNK 0.4 nM by itself, Table 2/5 series) is reported as 0% and 7.6%. The “Agonistic activity (% of maximal c-AMP inhibition)” value ([1]; HNK 2 nM by itself, Table 2/5 series) was 0%, the “Agonistic activity (% of maximal c-AMP inhibition)” value ([1]; HNK 10 nM by itself, Table 2/5 series) was 0% and the “Agonistic activity (% of maximal c-AMP inhibition)” value ([1]; HNK 50 nM by itself, Table 1 series) was 1.3%. For the same compound, the “Agonistic activity (% of maximal c-AMP inhibition)” value ([1]; HNK 50 nM by itself, Table 2/5 series) was 0% and 6.7%, the “Agonistic activity (% of maximal c-AMP inhibition)” value ([1]; HNK 300 nM by itself, Table 1 series) was 10.3% and the “Agonistic activity (% of maximal c-AMP inhibition)” value ([1]; HNK 1,800 nM by itself, Table 1 series) was −3.4%. For the same compound, the “Agonistic activity (% of maximal c-AMP inhibition)” value ([1]; HNK 11,000 nM by itself, Table 1 series) was −8.6%.
In the case of “10-fluoro ethylene glycol adduct of 7-hydroxymitragynine”, the “potency higher than 7-hydroxymitragynine” value [2] is given as 4 fold.
For `CNC1(c2ccccc2Cl)CCCCC1=O` (racemic) [Ketamine, (RS)-2-(2-Chlorophenyl)-2-(methylamino)cyclohexanone], the HNK serum concentrations [3] is listed as “about 30 nM”.
With `CN1c2ccccc2C(NCCCCCCC(=O)O)c2ccc(Cl)cc2S1(=O)=O` (stereo not shown) [Tia, 7-[(3-Chloro-6-methyl-5,5-dioxo-11H-benzo[c][2,1]benzothiazepin-11-yl)amino]heptanoic acid] the “amount of the single agent that obtains the level of activity of the combination” value [1] was > 5 ×.
